Source: patent publication US6500865B1, “Sulfonamide derivatives” (Eli Lilly and Company, priority 1998, dated 2002)

Target: T1, human GluR4B receptor (Homo sapiens, UniProt P48058)
T1 construct: expressed in transfected cells
Assay: potentiation of agonist-induced excitability of human GluR4B receptor expressed in HEK 293 cells
Type: cell-based
Settings: human GluR4B expressed in HEK 293 cells; qualitative statement
Text: The ability of compounds of formula I to potentiate glutamate receptor-mediated response may be determined using fluorescent calcium indicator dyes (Molecular Probes, Eugene, Oreg., Fluo-3) and by measuring glutamate-evoked efflux of calcium into GluR4 transfected HEK293 cells, as described in more detail below.
In one test, 96 well plates containing confluent monolayers of HEK cells stably expressing human GluR4B (obtained as described in European Patent Application Publication Number EP-A1-583917) are prepared. The tissue culture medium in the wells is then discarded, and the wells are each washed once with 200 μl of buffer (glucose, 10 mM, sodium chloride, 138 mM, magnesium chloride, 1 mM, potassium chloride, 5 mM, calcium chloride, 5 mM, N-[2-hydroxyethyl]-piperazine-N-[2-ethanesulfonic acid], 10 mM, to pH 7.1 to 7.3). […]
Each test is then performed as follows. […] A second fluorescent reading is taken after 5 minutes incubation. 15 μl of 400 μM glutamate solution is then added to each well (final glutamate concentration 100 μM), and a third reading is taken. The activities of test compounds and cyclothiazide solutions are determined by subtracting the second from the third reading (fluorescence due to addition of glutamate in the presence or absence of test compound or cyclothiazide) and are expressed relative to enhance fluorescence produced by 100 μM cyclothiazide.

T1 sequence (P48058 21-902): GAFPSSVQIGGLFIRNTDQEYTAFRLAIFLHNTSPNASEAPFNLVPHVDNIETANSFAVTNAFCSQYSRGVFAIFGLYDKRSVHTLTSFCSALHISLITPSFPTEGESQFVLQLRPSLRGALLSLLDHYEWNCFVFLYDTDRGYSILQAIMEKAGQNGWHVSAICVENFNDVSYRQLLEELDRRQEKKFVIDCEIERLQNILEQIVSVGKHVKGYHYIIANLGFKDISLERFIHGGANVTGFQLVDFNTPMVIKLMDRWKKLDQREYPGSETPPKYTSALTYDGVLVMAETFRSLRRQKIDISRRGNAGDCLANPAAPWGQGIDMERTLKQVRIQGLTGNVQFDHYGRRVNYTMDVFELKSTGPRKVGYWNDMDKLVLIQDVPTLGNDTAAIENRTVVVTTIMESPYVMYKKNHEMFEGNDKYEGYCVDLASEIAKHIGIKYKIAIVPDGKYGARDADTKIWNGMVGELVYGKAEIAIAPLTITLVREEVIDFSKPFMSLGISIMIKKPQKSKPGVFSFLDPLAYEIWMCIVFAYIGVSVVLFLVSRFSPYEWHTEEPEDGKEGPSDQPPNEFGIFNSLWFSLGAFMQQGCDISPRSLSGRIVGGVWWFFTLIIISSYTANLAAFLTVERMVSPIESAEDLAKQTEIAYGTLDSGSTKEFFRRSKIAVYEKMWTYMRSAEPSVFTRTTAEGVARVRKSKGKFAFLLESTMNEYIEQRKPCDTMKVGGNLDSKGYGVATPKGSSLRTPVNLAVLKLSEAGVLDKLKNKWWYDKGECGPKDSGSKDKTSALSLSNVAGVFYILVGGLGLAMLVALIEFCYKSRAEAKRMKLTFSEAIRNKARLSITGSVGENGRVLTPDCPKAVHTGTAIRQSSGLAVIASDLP

NS(=O)(=O)c1cc2c(cc1Cl)NC(C1CC3C=CC1C3)NS2(=O)=O (stereo not shown) [cyclothiazide]
potentiation of agonist-induced excitability of human GluR4B receptor: potentiate
